Data on 18 compounds can be found in PubChem BioAssay AID336 (DTP/NCI, 2004).

Where “and” joins values, the source holds several entries; their conditions need not be identical. Equal values may be shown once. Inconclusive results and toxic doses are left out.

The test system of the experiment is BDF1 mice, P388/VCR leukemia ip, median survival T/C. Briefly: NCI In Vivo Anticancer Drug Screen. Data for tumor model P388 Leukemia resistant to Vincristine; NSC 67574 (intraperitoneal) in B6D2F1 (BDF1) mice. Particulars: endpoint: median survival time, higher = longer survival. On the procedure: The antitumor activity of compounds was measured in mice bearing transplantable tumors. Survival or tumor size were measured and the results are expressed as the measurement made in the treated group (T) divided by the measurement made in the vehicle treated control group (C). The tumor model used in this assay is P388 Leukemia resistant to Vincristine; NSC 67574 (intraperitoneal) in B6D2F1 (BDF1) mice

Where [1] appears, read: dose: 20.0 mg/kg/injection, schedule: Q01DX010 (ip), vehicle: saline.
Where [2] appears, read: dose: 8.0 mg/kg/injection, schedule: Q01DX010 (ip), vehicle: saline.

In the case of `CC(C)[C@](O)(C(=O)OCC1=CC[N+]2([O-])CC[C@@H](O)[C@@H]12)[C@H](C)O` (stereo partly specified), the T/C by setting is: (dose: 130.0 mg/kg/injection, schedule: Q01DX009 (ip), vehicle: water) 98 % of control; (dose: 216.0 mg/kg/injection, schedule: Q01DX009 (ip), vehicle: water) 106 % of control; (dose: 360.0 mg/kg/injection, schedule: Q01DX009 (ip), vehicle: water) 113 % of control; (dose: 600.0 mg/kg/injection, schedule: Q01DX009 (ip), vehicle: water) 107 % of control.

For the compound `CN=C(NC)c1ccc(NC(=O)Nc2ccc(NC(=O)Nc3ccc(C(=NC)NC)cc3)cc2)cc1`, the T/C reads like this: (dose: 13.3 mg/kg/injection, schedule: Q01DX010 (ip), vehicle: saline) 150 % of control; under setting [1], 100 % of control; (dose: 30.0 mg/kg/injection, schedule: Q01DX010 (ip), vehicle: saline) 504 % of control.

With `S=P(N1CCOCC1)(N1CC1)N1CC1`, the T/C reads like this: (dose: 2.5 mg/kg/injection, schedule: Q01DX010 (ip), vehicle: saline) 104 % of control and 109 % of control; (dose: 5.0 mg/kg/injection, schedule: Q01DX010 (ip), vehicle: saline) 100 % of control and 109 % of control; (dose: 10.0 mg/kg/injection, schedule: Q01DX010 (ip), vehicle: saline) 100 % of control and 122 % of control; under setting [1], 86 % of control and 90 % of control.

`CC(=O)Nc1ccc2nc3ccc(NC(C)=O)cc3[n+](-c3ccccc3)c2c1`: the T/C runs as follows: (dose: 25.0 mg/kg/injection, schedule: Q01DX010 (ip), vehicle: saline) 91 % of control; (dose: 50.0 mg/kg/injection, schedule: Q01DX010 (ip), vehicle: saline) 87 % of control.

`CC[C@@]1(O)C[C@H](OC2CC(N(C)C)C(OC3CC(O)C(OC4CCC(=O)C(C)O4)C(C)O3)C(C)O2)c2c(cc3c(c2O)C(=O)c2c(O)ccc(O)c2C3=O)[C@H]1C(=O)OC` (stereo partly specified): the T/C by setting is: (dose: 2.88 mg/kg/injection, schedule: Q04DX003 (ip), vehicle: water) 118 % of control; (dose: 4.8 mg/kg/injection, schedule: Q04DX003 (ip), vehicle: water) 117 % of control; (dose: 8.0 mg/kg/injection, schedule: Q04DX003 (ip), vehicle: water) 95 % of control.

For `CCN(CC)CCNc1ccc(CO)c2sc3ccccc3c(=O)c12`, the T/C (dose: 21.6 mg/kg/injection, schedule: Q01DX009 (ip), vehicle: water) was 109 % of control; the T/C (dose: 25.2 mg/kg/injection, schedule: Q01DX009 (ip), vehicle: water) was 120 % of control; the T/C (dose: 36.0 mg/kg/injection, schedule: Q01DX009 (ip), vehicle: water) is 112 % of control; the T/C (dose: 114.0 mg/kg/injection, schedule: Q01DX009 (ip), vehicle: water) was 90 % of control.

On to `CC1CC(C)(O)CC(C(O)CC2CC(=O)NC(=O)C2)C1=O` (stereo unspecified), for which the T/C (dose: 480.0 micrograms/kg/injection, schedule: Q01DX009 (ip), vehicle: saline) was 105 % of control and the T/C (dose: 800.0 micrograms/kg/injection, schedule: Q01DX009 (ip), vehicle: saline) is 92 % of control.

`CCCNC(=NC)c1ccc(NC(=O)c2ccc(C(=O)Nc3ccc(C(=NC)NCCC)cc3)cc2)cc1`: the T/C is, setting by setting: (dose: 5.2 mg/kg/injection, schedule: Q01DX010 (ip), vehicle: saline) 113 % of control; under setting [2], 113 % of control; (dose: 12.0 mg/kg/injection, schedule: Q01DX010 (ip), vehicle: saline) 118 % of control; (dose: 18.0 mg/kg/injection, schedule: Q01DX010 (ip), vehicle: saline) 100 % of control.

Take `CCC1(O)CC2CN(CCc3c([nH]c4ccccc34)C(C(=O)OC)(c3cc4c(cc3OC)N(C)C3C(O)(C(N)=O)C(O)C5(CC)C=CCN6CCC43C65)C2)C1` (stereo unspecified) (tested in a mixture with another compound): the T/C (dose: 500.0 micrograms/kg/injection, schedule: Q04DX003 (ip), vehicle: saline) was 107 % of control; the T/C (dose: 648.0 micrograms/kg/injection, schedule: Q04DX003 (ip), vehicle: saline) was 106 % of control; the T/C (dose: 1000.0 micrograms/kg/injection, schedule: Q04DX003 (ip), vehicle: saline) is 118 % of control; the T/C (dose: 1080.0 micrograms/kg/injection, schedule: Q04DX003 (ip), vehicle: saline) was 100 % of control; the T/C (dose: 1800.0 micrograms/kg/injection, schedule: Q04DX003 (ip), vehicle: saline) was 98 % of control; the T/C (dose: 4000.0 micrograms/kg/injection, schedule: Q04DX003 (ip), vehicle: saline) was 110 % of control.

With `O=C(Nc1ccc(NC2=NCCN2)cc1)c1ccc(C(=O)Nc2ccc(NC3=NCCN3)cc2)cc1`, the T/C by setting is: (dose: 2.0 mg/kg/injection, schedule: Q01DX010 (ip), vehicle: saline) 121 % of control; (dose: 4.0 mg/kg/injection, schedule: Q01DX010 (ip), vehicle: saline) 192 % of control; under setting [2], 171 % of control and 211 % of control.

In the case of `C[n+]1ccc(Nc2ccc(NC(=O)c3ccc(Nc4cc[n+](C)c5ccc(N)cc45)cc3)cc2)cc1`, the T/C (dose: 3.24 mg/kg/injection, schedule: Q04DX003 (ip), vehicle: water) was 116 % of control.

Take `Nc1nc(SCc2ccccc2)c2[nH]cnc2n1`: the T/C runs as follows: under setting [2], 100 % of control; (dose: 16.0 mg/kg/injection, schedule: Q01DX010 (ip), vehicle: saline) 95 % of control and 100 % of control; (dose: 32.0 mg/kg/injection, schedule: Q01DX010 (ip), vehicle: saline) 104 % of control and 109 % of control; (dose: 64.0 mg/kg/injection, schedule: Q01DX010 (ip), vehicle: saline) 95 % of control and 100 % of control.

With `CCCSc1ncnc2nc[nH]c12`, the T/C (dose: 31.3 mg/kg/injection, schedule: Q01DX010 (ip), vehicle: saline) was 95 % of control; the T/C (dose: 62.5 mg/kg/injection, schedule: Q01DX010 (ip), vehicle: saline) is 95 % of control; the T/C (dose: 125.0 mg/kg/injection, schedule: Q01DX010 (ip), vehicle: saline) is 88 % of control and 95 % of control; the T/C (dose: 250.0 mg/kg/injection, schedule: Q01DX010 (ip), vehicle: saline) is 95 % of control.

For `O=C(Nc1ccc(C2=NCCN2)cc1)Nc1cccc(NC(=O)Nc2ccc(C3=NCCN3)cc2)c1`, the T/C is 179 % of control and 183 % of control (dose: 60.0 mg/kg/injection, schedule: Q01DX010 (ip), vehicle: saline); 241 % of control and 279 % of control (dose: 120.0 mg/kg/injection, schedule: Q01DX010 (ip), vehicle: saline); 108 % of control and 116 % of control (dose: 480.0 mg/kg/injection, schedule: Q01DX010 (ip), vehicle: saline).

For `CN(C)c1nc(N(C)C)nc(N(C)C)n1`, the T/C by setting is: (dose: 18.8 mg/kg/injection, schedule: Q01DX010 (ip), vehicle: saline) 100 % of control; (dose: 37.5 mg/kg/injection, schedule: Q01DX010 (ip), vehicle: saline) 100 % of control; (dose: 75.0 mg/kg/injection, schedule: Q01DX010 (ip), vehicle: saline) 100 % of control; (dose: 150.0 mg/kg/injection, schedule: Q01DX010 (ip), vehicle: saline) 104 % of control.

Take `CO[C@@]12[C@H](COC(N)=O)C3=C(C(=O)C(C)=C(N)C3=O)N1C[C@@H]1N[C@@H]12`: the T/C is 184 % of control (dose: 1.08 mg/kg/injection, schedule: Q04DX003 (ip), vehicle: saline); 221 % of control (dose: 1.8 mg/kg/injection, schedule: Q04DX003 (ip), vehicle: saline); 184 % of control (dose: 3.0 mg/kg/injection, schedule: Q04DX003 (ip), vehicle: saline); 124 % of control (dose: 5.0 mg/kg/injection, schedule: Q04DX003 (ip), vehicle: saline).

As to `O[C@H](CN1CC1)[C@@H](O)CN1CC1`, the T/C is 180 % of control and 200 % of control (dose: 0.13 mg/kg/injection, schedule: Q01DX010 (ip), vehicle: saline); 150 % of control and 241 % of control (dose: 0.25 mg/kg/injection, schedule: Q01DX010 (ip), vehicle: saline).

As for `C[C@H]1C(=O)O[C@@H]2CCN3CC=C(COC(=O)[C@](C)(O)[C@@]1(C)O)[C@H]23`, the T/C was 108 % of control (dose: 1.56 mg/kg/injection, schedule: Q01DX010 (ip), vehicle: saline); 112 % of control (dose: 3.13 mg/kg/injection, schedule: Q01DX010 (ip), vehicle: saline); 91 % of control (dose: 6.25 mg/kg/injection, schedule: Q01DX010 (ip), vehicle: saline); 100 % of control (dose: 12.5 mg/kg/injection, schedule: Q01DX010 (ip), vehicle: saline).
